Laboratory results as given in patent publication US20090030055A1, “PKC activation as a means for enhancing s[sequence] secretion and improving cognition using bryostatin type compounds” (priority 2002, published 2009).
pEC50, pKi: −log10 of the molar value. Entries after “also recorded” stand apart in the source; their conditions may differ. Like-named read-outs stand apart in the source and are kept apart here.

Assays:
PKC [1] = conditions: cited from earlier work
PKCε = biological target: T1, PKCε (Homo sapiens, UniProt Q02156); conditions: cited from earlier work
T1 sequence (Q02156 1-737): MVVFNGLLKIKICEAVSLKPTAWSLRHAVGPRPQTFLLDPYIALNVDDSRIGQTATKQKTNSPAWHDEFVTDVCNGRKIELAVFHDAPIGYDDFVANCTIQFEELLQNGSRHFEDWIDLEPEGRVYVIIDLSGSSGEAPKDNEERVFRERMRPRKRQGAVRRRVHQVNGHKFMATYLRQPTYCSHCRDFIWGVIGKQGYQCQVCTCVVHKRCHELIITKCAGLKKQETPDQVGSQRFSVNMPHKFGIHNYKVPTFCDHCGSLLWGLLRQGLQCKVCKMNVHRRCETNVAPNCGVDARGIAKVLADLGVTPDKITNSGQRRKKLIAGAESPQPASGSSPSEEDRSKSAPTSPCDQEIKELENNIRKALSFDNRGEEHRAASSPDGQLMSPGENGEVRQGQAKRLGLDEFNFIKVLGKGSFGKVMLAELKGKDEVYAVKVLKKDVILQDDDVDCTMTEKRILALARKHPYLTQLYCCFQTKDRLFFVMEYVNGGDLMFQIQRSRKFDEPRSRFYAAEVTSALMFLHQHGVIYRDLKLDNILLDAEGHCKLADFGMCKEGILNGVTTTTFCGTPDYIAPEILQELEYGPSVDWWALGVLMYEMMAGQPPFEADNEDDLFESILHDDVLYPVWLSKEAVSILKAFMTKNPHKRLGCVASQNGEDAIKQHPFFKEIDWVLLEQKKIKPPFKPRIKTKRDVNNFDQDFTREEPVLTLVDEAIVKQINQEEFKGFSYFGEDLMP

PKC [2] = conditions: competes with [3H]phorbol dibutyrate; read-out: Ki for binding; cited from earlier work
[3] = system: squamous cell carcinoma and melanoma; conditions: used topically; cited from earlier work
NCI 60 cell line screen = conditions: cited from earlier work
protein kinase C = conditions: (−)-enantiomer; cited from earlier work
[4] = system: sAPPα secretion, AD cell line AG06848; assay: sAPPα secretion immunoblot, AD fibroblasts; type: cell-based, human; conditions: 100 nM pre-treatment; bryostatin 0.1 nM
Method: Cultured skin fibroblasts were obtained from the Coriell Cell Repositories and grown using the general guidelines established for their culture with slight modifications (Cristofalo & Carpentier, 1988; Hirashima et al., 1996). The culture medium in which cells were grown was Dulbecco's modified Eagle's medium (GIBCO) supplemented with 10% fetal calf serum (Biofluids, Inc.). Fibroblasts from control cell lines (AC), cases AG07141 and AG06241, and a familial AD (FAD) case (AG06848) were utilized.
Cells grown to confluence in 6 cm Petri dishes for 5-7 days. On the day of the experiment, medium was replaced with DMEM without serum and left undisturbed for 2 h. Upon completion of the 2 hour serum deprivation; treatment was achieved by direct application to the medium of Bryo, BL and DMSO at the appropriate concentrations. (0.1 and 0.01 nM for bryostatin; 0.1 nM, 0.1 μM, and 1 μM BL). DMSO was less than 1% in all cases. In most cases, medium was collected and processed after 3 hours of treatment for sAPP secretion. Other time points were also used to establish a time course of secretion.
sAPP—Determinations/Measurements of sAPPα
The concentration of secreted APP was measured using conventional immunoblotting techniques, with minor modifications the protocol. Precipitated protein extracts from each dish/treatment were loaded to freshly prepared 10% acrylamide Tris-HCl minigels and separated by SDPAGE. The volume of sample loaded was corrected for total cell protein per dish. Proteins were then electrophoretically transferred to PVDF membranes. Membranes were saturated with 5% non-fat dry milk to block non-specific binding. Blocked membranes were incubated overnight at 4° C. with the commercially available antibody 6E10 (1:500), which recognizes sAPP-alpha in the conditioned medium (SENETEK). After washing, the membranes were incubated at room temperature with horseradish peroxidase conjugated anti-mouse IgG secondary antibody (Jackson's Laboratories). The signal was then detected using enhanced chemiluminescence followed by exposure of Hyperfilm ECL (Amersham). The band intensities were quantified by densitometry using a BioRad GS-800 calibrated scanning densitometer and Multianalyst software (BioRad).

[5] = A-ring bryologs, read-out: affinity for PKC

## CCCCCCCC(=O)O[C@H]1/C(=C/C(=O)OC)C[C@H]2C[C@H](CO)OC(=O)C[C@H](O)CCOCC[C@@H]3CCO[C@H](/C=C/C(C)(C)[C@]1(O)O2)O3 [Analog 2]
PKC [1]
  affinity for PKC, in words: high affinity
PKC [1]; read-out: PKC Affin
  pKi: 8.19

## CCCCCC1CC1CC1CC1CCCCCCCC(=O)O (centres unmarked) [DCP-LA, 2-[(2-pentylcyclopropyl)methyl]cyclopropaneoctanoic acid]
PKCε
  concentration of maximal effect on PKCε: 100 nM

## CC1=C[C@]23C(=O)[C@@H](C=C(COC(=O)c4ccccc4)[C@@H](O)[C@]2(O)[C@H]1OC(=O)c1ccccc1)[C@H]1[C@@H](C[C@H]3C)C1(C)C [Ingenol 3,20-dibenzoate]
PKC [2]
  pKi: 6.62

## C/C=C(/C)C(=O)O[C@H]1C(C)=C[C@]23C(=O)[C@@H](C=C(CO)[C@@H](O)[C@]12O)[C@H]1[C@@H](C[C@H]3C)C1(C)C [Ingenol-3-angelate]
[3]
  antitumor activity: possesses antitumor activity

## CC1=CC[C@H](C)C(C)(C)[C@@H]1/C=C/C(C)=C/CC[C@@]1(CO)[C@H](CCCO)/C(=C(/C)C=O)CC[C@]1(C)O [Iripallidal]
NCI 60 cell line screen
  G150 (concentration required to inhibit growth by 50%): micromolar to nanomolar range

## CCCCCCCC(=O)OC1C(=CC(=O)OC)CC2CC(CO)OC(=O)CC(O)CCOC(C(C)(C)C)CC3CCOC(C=CC(C)(C)C1(O)O2)O3 (centres unmarked) [bryolog 3]
PKC [1]; [5]
  pKi: 8.19

## CCCCCCCC(=O)OC1C(=CC(=O)OC)CC2CC(CO)OC(=O)CC(O)CCOC(c3ccccc3)CC3CCOC(C=CC(C)(C)C1(O)O2)O3 (centres unmarked) [bryolog 4]
PKC [1]; [5]
  pKi: 8.64

## CCCCCCCC(=O)OC1C(=CC(=O)OC)CC2CC(CO)OC(=O)CC(O)CCOC(CCCc3ccc(Br)cc3)CC3CCOC(C=CC(C)(C)C1(O)O2)O3 (centres unmarked) [bryolog 5]
PKC [1]; [5]
  pKi: 8.72

## CCCCCCCCc1ccc2c3c(c[nH]c13)C[C@@H](CO)NC(=O)[C@H](C(C)C)N2C [octylindolactam V, Octylindolactam V]
Protein kinase C
  pEC50: 7.54

## CN[C@@H]1C[C@H]2O[C@@](C)([C@@H]1OC)n1c3ccccc3c3c4c(c5c6ccccc6n2c5c31)C(=O)NC4 [staurosporin]
[4]
  effect of pre-treatment on bryostatin-induced sAPPα secretion: abolished the effects of 0.1 nM bryostatin; also recorded: completely abolished the effect
